Laboratory results from patent US20030017483A1, “Modulation of molecular interaction sites on RNA and other biomolecules” (priority 1998, published 2003).
Converted amounts (≈) assume the structure as drawn. Like-named read-outs stand apart in the source and are kept apart here.

What was measured:
[1] = system: luciferase mRNA (control luc+9); experiment: wheat germ lysate translation of control luciferase mRNA; assay type: biochemical; details: control mRNA without TAR
Excerpt: It is believed that stabilization of mRNA structures near the 5′-cap also could be effected by specific “small” molecules, and that such binding would reduce the translational efficiency of the mRNA. To test this hypothesis, a plasmid was constructed containing the luciferase message behind a 5′-UTR containing a 27-mer RNA construct of the HIV TAR stem-loop bulge whose structure had been determined by NMR.

[2] = system: TAR RNA interaction with tat peptide; experiment: disruption of TAR RNA interaction with tat peptide; assay type: binding, HIV
TAR = details: in words, FIG. 36
[3] = molecular target: luciferase mRNA containing the TAR RNA structure in the 5′-UTR; experiment: wheat germ lysate translation of luciferase mRNA containing TAR RNA structure; assay type: biochemical, HIV; details: luciferase mRNA with TAR RNA structure in the 5′-UTR, read-out: concentration reducing translation by 50%
Excerpt: It is believed that stabilization of mRNA structures near the 5′-cap also could be effected by specific “small” molecules, and that such binding would reduce the translational efficiency of the mRNA. To test this hypothesis, a plasmid was constructed containing the luciferase message behind a 5′-UTR containing a 27-mer RNA construct of the HIV TAR stem-loop bulge whose structure had been determined by NMR. The resulting mRNA could be expressed and capped in a wheat germ lysate translation system supplemented with T7 polymerase following addition of m^7G to the lysate (see, FIG. 38A). Insertion of a 9-base leader before the TAR structure (HIVluc+9) enhanced the translational efficiency, presumably by allowing the pre-initiation complex to form. The helicase activity associated with the pre-initiation complex can transiently melt out the TAR RNA structure, and the message is translated (see, FIG. 38A).

E. coli = experiment: high throughput screening assay for antibacterial activity; assay type: cell-based; details: Escherichia coli; crude compounds, against E. coli; read-out: minimum inhibitory concentrations (MIC's)
Excerpt: This activity was verified by manual solution synthesis of analytically pure material as described in Example 6 above, which had identical activity.

[4] = molecular target: 27-mer model RNA sequence of the 16S A-site; experiment: MASS assay (mass spectrometry binding affinity); details: 27-mer model RNA of the 16S A-site
Excerpt: One mass spectrometric method which is particularly useful when combined with the techniques of the foregoing commonly owned inventions provides the determination of specificity and affinity of ligands to RNA targets. MASS (multi target affinity/specificity screening) techniques can provide high throughput screening methods to analyze the specificity and affinity of ligands to molecular interaction sites of nucleic acids, especially RNA. […]
Binding site information can be obtained by comparing the gas phase fragmentation patterns of the free and complexed target while relative binding constants are derived from the relative abundance of complexes using a complex with a known Kd as an internal standard. With knowledge of the specificity and affinity of ligands to the molecular interaction site of a target RNA, the desired lead or ultimate compound for modulation of the RNA can be determined.
The compounds are screened for binding affinity using MASS or conventional high-throughput functional screens. […] The MASS assay was performed with the 27-mer model RNA sequence of the 16S A-site whose NMR structure has been determined. […]

luciferase reporter = experiment: transcription/translation assay based on expression of a luciferase plasmid; assay type: biochemical
Protocol: The compounds are screened for binding affinity using MASS or conventional high-throughput functional screens. The best scoring compounds from docking a 256-member library against the 16S A-site ribosomal RNA structure are shown in the table below. The MASS assay was performed with the 27-mer model RNA sequence of the 16S A-site whose NMR structure has been determined. The transcription/translation assay was based on expression of a luciferase plasmid.

[5] = molecular target: 27-mer RNA containing the A-site of the 16S rRNA; details: cited from earlier work
[6] = system: 23S rRNA fragment / L11 protein fragment; experiment: L11/thiostrepton SPA assay; assay type: binding; details: positive control, RNA under destabilizing conditions
Excerpt: The mode of action of thiostrepton appears to be to stabilize a region of the 23S rRNA and by doing so prevent a structural transition in the L11 protein. Among the many assays that look at RNA/protein interactions, an SPA assay has been designed to look for small molecules that could be effective as thiostrepton ‘like’ agents. This assay uses a radiolabeled small fragment of the 23S rRNA, a biotinylated 75 amino acid fragment of the L11 protein that contains the 23S rRNA binding domain and thiostrepton. The folding conditions of the secondary and tertiary structures of the 23S rRNA fragment have been examined as have the binding conditions of the L11 fragment to the 23S rRNA. The L11-thiostrepton assay has been optimized so that the 23S rRNA fragment is in an unfolded state prior to the addition of compounds. Addition of the L11 fragment to this unfolded RNA results in no detectable binding interaction. The high throughput assay is run by mixing the 23S rRNA fragment, under destabilizing conditions, with compounds of interest, incubating this mixture, and then adding the L11 fragment. Streptavidin-coated SPA beads are added for binding detection. Thiostrepton is used as a positive control.

[7] = cited from earlier work

CNc1ccc(NCCO)c2c1C(=O)c1ccccc1C2=O [ACD 00001199]
inhibition of translation of the luciferase mRNA [1]: some inhibition of translation at very high concentrations | concentration at which the interaction of TAR RNA with tat peptide is disrupted [2]: 1 µM | IC50 values (TAR): low | IC50 [3]: 50000 nM

O=C(NO)[C@@H](Cc1ccc2ccccc2c1)NS(=O)(=O)c1ccc2ccccc2c1 [Compound 5-n-ii, (2R)-3-(2-naphthyl)-2-((2-naphthylsulfonyl)amino)propanehydroxamic Acid]
MIC (E. coli): 0.7 to 1.5 µM (≈ 0.294 to 0.631 µg/mL)

O=C(NO)[C@@H](Cc1ccc2ccccc2c1)NS(=O)(=O)c1ccc(Br)cc1 [Compound 5-n-vi, (2R)-2-(((4-bromophenyl)sulfonyl)amino)-3-(2-naphthyl)propanehydroxamic Acid]
MIC (E. coli): 3 to 6 µM (≈ 1.35 to 2.7 µg/mL)

NC[C@@H]1O[C@H](O[C@H]2[C@@H](O)[C@H](O[C@@H]3[C@@H](O)[C@H](N)C[C@H](N)[C@H]3O[C@H]3O[C@H](CO)[C@@H](O)[C@H](O)[C@H]3N)O[C@@H]2CO)[C@H](N)[C@@H](O)[C@@H]1O [Paromomycin]
Kd [4]: 500 nM | Activity: Inhibition of protein synthesis in transcription/translation assay for luciferase reporter (luciferase reporter): 0.3 µM | Kd ([5]; 27-mer RNA containing the A-site of the 16S rRNA, known value, read-out: Kd, binding to the unpaired adenosine residues): 200 nM | Kd ([5]; standard, known from other experiments or literature, read-out: binding affinity for a test 27-mer RNA): ~1000 nM

C=C(NC(=O)C(=C)NC(=O)c1csc(C2=N[C@@H]3c4csc(n4)[C@H]4NC(=O)c5csc(n5)[C@H]([C@](C)(O)[C@@H](C)O)NC(=O)[C@H]5CSC(=N5)/C(=C/C)NC(=O)[C@H]([C@@H](C)O)NC(=O)c5csc(n5)[C@]3(CC2)NC(=O)[C@H](C)NC(=O)C(=C)NC(=O)[C@H](C)NC(=O)[C@H]([C@@H](C)CC)N[C@@H]2C=Cc3c([C@H](C)O)cc(nc3[C@H]2O)C(=O)O[C@@H]4C)n1)C(N)=O [thiostrepton]
L11 fragment binding to 23S rRNA fragment (SPA signal) [6]: allows the L11 fragment to bind leading to the generation of a signal | solubility [7]: very poor solubility
